According to ChEMBL document CHEMBL3044701, “Synthesis, characterization and biological activity of Schiff bases derived from metronidazole” (Med Chem Res, 2012):
In brackets after ≈: the same amount, converted by molar mass. Activity calls are given as the source filed them. The calls are words filed in the database; no cut-off is given here.

How the values were obtained:
Candida albicans [1] = experiment: Antifungal activity against Candida albicans ATCC 10231 up to 1.25 mg/ml after 24 hr by broth microdilution method; assay type: functional, organism-based
Giardia intestinalis [2] = experiment: Antigiardial activity against Giardia intestinalis WB by trypan blue assay; assay type: functional, organism-based; details: Giardia duodenalis
Clostridium sporogenes = experiment: Antibacterial activity against Clostridium sporogenes ATCC 19404 after 24 hr by broth microdilution method; assay type: functional; details: ATCC 19404, 24 h
Escherichia coli [3] = experiment: Antibacterial activity against Escherichia coli ATCC 8739 after 24 hr by broth microdilution method; assay type: functional; details: ATCC 8739, 24 h
Staphylococcus aureus [4] = experiment: Antibacterial activity against Staphylococcus aureus ATCC 6538P after 24 hr by broth microdilution method; assay type: functional
Candida albicans [5] = experiment: Antifungal activity against Candida albicans ATCC 10231 after 24 hr by broth microdilution method; assay type: functional; details: ATCC 10231, 24 h
Staphylococcus aureus [6] = experiment: Antibacterial activity against Staphylococcus aureus ATCC 6538P up to 1.25 mg/ml after 24 hr by broth microdilution method; assay type: functional, organism-based
Escherichia coli [7] = experiment: Antibacterial activity against Escherichia coli ATCC 8739 up to 1.25 mg/ml after 24 hr by broth microdilution method; assay type: functional, organism-based
Giardia intestinalis [8] = experiment: Ratio of metronidazole IC50 to compound IC50 for Giardia intestinalis; assay type: functional, Giardia duodenalis

Compound | Activity (Candida albicans [1]) | IC50 (Giardia intestinalis [2]) [nM] | MIC (Clostridium sporogenes) [µM] | MIC (Escherichia coli [3]; read-out: MIC) [µM] | MIC (Staphylococcus aureus [4]; read-out: MIC) [µM] | MIC (Candida albicans [5]; read-out: MIC) [µM] | Activity (Staphylococcus aureus [6]) | Activity (Escherichia coli [7]) | MIC (Candida albicans [5]) [µg/mL] | Ratio IC50 (Giardia intestinalis [8]) | MIC (Escherichia coli [3]) [µg/mL] | MIC (Staphylococcus aureus [4]) [µg/mL]
Cc1ncc([N+](=O)[O-])n1CC/N=C/c1ccco1 | inactive | 2780 | 236 (≈ 58.6 µg/mL) | 8850 | 8850 |  |  |  |  |  |  | 
Cc1ncc([N+](=O)[O-])n1CC/N=C/c1ccccc1Cl |  | 7290 | 267 (≈ 78.2 µg/mL) | 2140 | 2670 | 170 |  |  |  |  |  | 
Cc1ncc([N+](=O)[O-])n1CC/N=C/c1ccc([N+](=O)[O-])cc1 |  | 1830 | 257 (≈ 77.9 µg/mL) |  |  | 450 | inactive | inactive |  |  |  | 
COc1ccc(/C=N/CCn2c([N+](=O)[O-])cnc2C)cc1 |  | 2260 | 203 (≈ 58.5 µg/mL) | 4340 | 4340 | 340 |  |  |  |  |  | 
Cc1ncc([N+](=O)[O-])n1CC/N=C/c1ccc(F)cc1 |  | 2390 | 1130 (≈ 313 µg/mL) | 4300 | 5090 | 1990 |  |  |  |  |  | 
Clc1ccc(COC(Cn2ccnc2)c2ccc(Cl)cc2Cl)c(Cl)c1 (centres undefined) [MICONAZOLE] |  |  |  |  |  |  |  |  | 2.9 |  |  | 
Cc1ncc([N+](=O)[O-])n1CC/N=C/c1ccncc1 | inactive | 11200 | 376 (≈ 97.5 µg/mL) | 8460 | 8460 |  |  |  |  |  |  | 
Cc1ncc([N+](=O)[O-])n1CC/N=C/c1cccs1 |  | 830 | 369 (≈ 97.5 µg/mL) | 7100 | 7100 | 2070 |  |  |  | 5 |  | 
Cc1ncc([N+](=O)[O-])n1CC/N=C/c1cc(Cl)ccc1O |  | 4320 | 1010 (≈ 313 µg/mL) | 760 | 760 | 440 |  |  |  |  |  | 
CC1(C)S[C@@H]2[C@H](NC(=O)[C@H](N)c3ccccc3)C(=O)N2[C@H]1C(=O)O [AMPICILLIN] |  |  |  |  |  |  |  |  |  |  | 2.3 | 0.036
Cc1ncc([N+](=O)[O-])n1CC/N=C/c1ccccc1O |  | 2150 | 285 (≈ 78.2 µg/mL) | 2240 | 2000 | 360 |  |  |  |  |  | 
Cc1ccc(/C=N/CCn2c([N+](=O)[O-])cnc2C)cc1 |  | 1360 | 1440 (≈ 392 µg/mL) | 4370 | 6890 | 1000 |  |  |  |  |  | 
Cc1ncc([N+](=O)[O-])n1CCO [METRONIDAZOLE] | inactive | 3740 | 45.6 (≈ 7.8 µg/mL) | 5480 | 2050 |  |  |  |  |  |  | 
